Patent publication US9060516B2, “Method for controlling aquatic weeds” (BASF SE, priority 2005, dated 2015)

What was measured:
Hydrilla verticillata = assay: Greenhouse test, static exposure of Hydrilla verticillata to quinclorac in water columns; format: in vivo; settings: for Hydrilla Shoot Length: static exposure, 11 weeks after treatment, control 30.4 cm, LSD at 0.05 = 11.5
Method: To begin the experiment, PVC cylinders were filled and maintained with a volume of 4000 ml of dichlorinated water that was maintained at room temperature (24° C.). To each cylinder, an established hydrilla plant (potted in sand mixture) was transferred into the water column. Hydrilla plants were selected for uniformity and length of shoot growth (approx 15 cm). Plants were allowed to equilibrate in the columns for 24 hrs prior to herbicide treatment. Experimental treatments included an untreated control, and quinclorac at 50, 250 and 500 ppb of actual acid equivalent of herbicide. Treatments were applied to water columns by the use of a pipette. Amount of herbicide applied was based on the total volume of the cylinders (4000 ml). After initial herbicide treatment, the water columns were gently stirred to ensure uniform distribution. Treatments were arranged as a completely random design with 3 replications. Each cylinder was considered the experimental unit. Greenhouse conditions were maintained at 24/18° C. (day/night) cycle for the duration of the experiment. Natural day length was supplemented with halogen lighting to provide a 14 hr photoperiod. Water level in the cylinders was periodically checked and maintained at the 4000 ml level for the duration of the study. After 11 weeks of exposure, hydrilla shoot lengths were measured to ascertain herbicide effects.

[1] = system: Mixed population of submersed weed species: Hydrilla verticillata and Egeria densa; assay: Greenhouse test, static exposure of a mixed population of submersed weed species to quinmerac and quinclorac; format: in vivo; settings: for Shoot Fresh / Shoot Length: static exposure, 12 weeks after treatment; for Shoot Fresh: control 6.8 g, LSD at 0.05 = 3.1; for Shoot Length: control 37.3 cm, LSD at 0.05 = 17.4
Method: To begin the experiment, containers were filled and maintained with a volume of 4000 ml of distilled water that was maintained at room temperature (24° C.). To each container, established weed plants (potted in sand mixture) were transferred into the water column. Plants were selected for uniformity and length of shoot growth (approx 15 cm). Plants were allowed to equilibrate in the containers for 24 hrs prior to herbicide treatment. Experimental treatments included an untreated control, quinmerac at 100, 250, and 500 ppb, as well as, quinclorac at 250 ppb of actual acid equivalent of herbicide. Treatments were applied to water columns by the use of a pipette. Amount of herbicide applied was based on the total volume of the containers (4000 ml). After initial herbicide treatment, the water columns were gently stirred to ensure uniform distribution. Treatments were arranged as a completely random design with 3 replications. Each container was considered the experimental unit. Greenhouse conditions were maintained at 24/18° C. (day/night) cycle for the duration of the experiment. Natural day length was supplemented with halogen lighting to provide a 14 hr photoperiod. Water level in the containers was periodically checked and maintained at the 4000 ml level for the duration of the study. After 12 weeks of exposure, weed shoot length and fresh weights were measured to ascertain herbicide effects.

O=C(O)c1c(Cl)ccc2cc(Cl)cnc12 [Quinclorac, 3,7-dichloroquinoline-8-carboxylic acid]
Hydrilla Shoot Length (Hydrilla verticillata; 50 ppb acid equivalent): 15.0 cm
Hydrilla Shoot Length (Hydrilla verticillata; 250 ppb acid equivalent): 8.9 cm
Hydrilla Shoot Length (Hydrilla verticillata; 500 ppb acid equivalent): 6.5 cm
Effect on the growth of hydrilla (Hydrilla verticillata; after the 11 week exposure period, 50-500 ppb): significant effect on the growth of hydrilla
Visual symptomology (Hydrilla verticillata; after the 11 week exposure period, intensity tended to be rate responsive): reduction in plant vigour and auxinic-like twisting of leaf tissue
Shoot Fresh ([1]; 250 ppb acid equivalent): 1.5 grams
Shoot Length ([1]; 250 ppb acid equivalent): 15.7 cm
Reduction in both shoot length and fresh weight vs. the control ([1]; 250 ppb, 12 weeks of exposure): Significant reduction

Cc1cnc2c(C(=O)O)c(Cl)ccc2c1 [Quinmerac, 7-chloro-3-methylquinoline-8-carboxylic acid]
Visual symptomology ([1]; 12 weeks of exposure, intensity tended to be rate responsive): reduction in plant vigour and auxinic-like twisting of leaf tissue
Shoot Fresh ([1]; 100 ppb acid equivalent): 5.1 grams
Shoot Length ([1]; 100 ppb acid equivalent): 15.0 cm
Shoot Fresh ([1]; 250 ppb acid equivalent): 0.5 grams
Shoot Length ([1]; 250 ppb acid equivalent): 8.9 cm
Reduction in both shoot length and fresh weight vs. the control ([1]; 250 ppb, 12 weeks of exposure): Significant reduction
Shoot Fresh ([1]; 500 ppb acid equivalent): 0.1 grams
Shoot Length ([1]; 500 ppb acid equivalent): 6.5 cm
Reduction in both shoot length and fresh weight vs. the control ([1]; 500 ppb, 12 weeks of exposure): Significant reduction
